Assay results from patent US20220403327A1, “CUSTOMIZABLE 3D CELL CULTURE SYSTEM COMPRISING HYDROGEL-EMBEDDED CELLS AND USES THEREOF” (POLYVALOR, LIMITED PARTNERSHIP, priority 2019, published 2022).

Experiments:
Type in all cases: cell-based
[1] = tested on: breast cancer cells; assay: Drug screening test: tumor migration on plasma-treated PLA electrospun mat 3D cell culture model; conditions: 0, 0.05, 0.1, 0.5, 1 and 2 μM in media; day 7 of cell culture; A1G7 hydrogel on fibroblast-seeded PLA mats; triplicate
Protocol: FIG. 11B is a graph showing the measurement of the number of tumor cells migrated to the surface of PLA mats at different concentrations (0, 0.05, 0.1, 0.5, 1 or 2 μM) of Doxorubicin. Experiments were performed in triplicate and the error bars in the graph show the standard deviation.
(§1) A drug screening setup was designed using the known anti-tumor drug Doxorubicin to assess tumor migration performance on the 3D cell culture model of the present disclosure. The plasma-treated PLA electrospun mats seeded with fibroblasts and tumor cells on A1G7 hydrogel on top, were loaded with various concentrations of Doxorubicin (0, 0.05, 0.1, 0.5, 1 and 2 μM) in triplicate, and tumor migration assessment was performed at day 7 of cell culture. […] The experiment was done in triplicate and the error bars presented in the chart are based on standard deviation.

[2] = tested on: bone metastases prostate (BMP4) patient-derived tumor cells; assay: Drug screening test: tumor migration on PP-EL plasma-coated PLA electrospun mats with patient-derived tumor cells; conditions: 0, 0.05, 0.1 and 0.5 μM, day 7 of cell culture, A1G7 hydrogel, triplicate
Protocol: FIG. 12C is a graph showing the measurement of the number of BMP4 tumor cells migrated to the surface of PP-EL plasma-treated PLA mats at different concentrations (0, 0.05, 0.1, or 0.5 μM) of Doxorubicin. Experiments were performed in triplicate and the error bars in the graph show the standard deviation.
The 3D cell culture system according to the present disclosure was also used to perform a doxorubicin screening tested with tumor cells derived from patients (bone metastases prostate (BMP4) patient-derived tumor cells) and a breast tumor cell line (MBA-MB231) in A1G7 hydrogel. In this experiment, the PLA scaffolds were coated with PP-EL, ethyl lactate (EL) plasma coating in atmospheric pressure, and captured at day 7 after culture. The results depicted in FIG. 12A indicate a significant difference in the appearance of primary BMP4 tumor cells and commercial tumor cell line in the images. The pictures show the 3D stack of the total mat layers (certain thickness) obtained by signal from cells.
The PP-EL plasma-coated PLA electrospun mats seeded with BMP4 tumor cells on A1G7 hydrogel on top, were loaded with various concentrations of Doxorubicin (0, 0.05, 0.1 and 0.5 μM) in triplicate, and tumor migration assessment was performed at day 7 of cell culture.

[3] = tested on: fibroblasts; assay: Drug screening test: stromal cells on nanofibrous PLA scaffolds of the 3D cell culture model; conditions: 0-2 μM; day 7; relative to samples from previous experiment without drug
Protocol: as §1, with “A1G7” left out

COc1cccc2c1C(=O)c1c(O)c3c(c(O)c1C2=O)C[C@@](O)(C(=O)CO)C[C@@H]3O[C@H]1C[C@H](N)[C@H](O)[C@H](C)O1 [Doxorubicin]
number of breast cancer cells that were able to migrate to the surface of scaffolds [1]: significant reduction | BMP4 tumor cells migration [2]: dose-dependent inhibition | number of stromal cells (fibroblasts) on nanofibrous scaffolds [3]: reduced number of stromal cells
